Measurements from patent publication US20130310428A1, “THERMO-STABLE, ARSENIC-FREE SYNERGISTIC BIOCIDE CONCENTRATE COMPOSITION FOR POLYMER MATRICES AND PROCESS FOR PREPARING SAME” (ISP INVESTMENTS INC., priority 2010, published 2013).

Key:
Type in all cases: cell-based
[1] = system: mixture of Aspergillus niger (ATCC 9642), Aureobasidium pullulans (ATCC 15233), Chaetomium globosum (ATCC 6205), Penicillium funiculosum (ATCC 11797) and …; assay: Fungal resistance test ASTM G-21, flexible PVC coupons; parameters: key: 0 is no growth; 1 is traces of growth (less than 10%); 2 is light growth (10-30%); 3 is medium growth (30-60%); 4 is maximum growth (more than 60%); settings: rating at 4th week
Description: (§1) Plastic samples containing the biocide concentrate composition containing antioxidant can be prepared by mixing with commercially available flexible PVC and processing at 175° C. in a brabender. The samples are pressed to form coupons for testing purposes. A sample containing no biocide is also prepared to serve as a negative control against the samples of the present invention.
(§2) Fungal resistance tests are conducted according to ASTM G-21. Briefly, a fungal inoculum containing a mixture of Aspergillus niger (ATCC 9642), Aureobasidium pullulans (ATCC 15233), Chaetomium globosum (ATCC 6205), Penicillium funiculosum (ATCC 11797) and Trichoderma virens (ATCC 9645) is prepared to obtain a final spore concentration of about 10^5 spores/ml. The samples (in triplicate) are placed on Petri-dishes containing nutrient salts agar and incubated with the spore suspension. The samples are then incubated at 28° C. for 4 weeks and rated weekly. The fungal growth of the samples is rated on a scale of 0 to 4 where: 0 is no growth, 1 is traces of growth (less than 10%); 2 is light growth (10-30%); 3 is medium growth (30-60%) and 4 is maximum growth (more than 60%). The ratings shown in Tables 1 to 3 correspond to those at the end of the test i.e., on 4th week for three different compositions of combination of biocidal agents.

[2] = system: Streptoverticillium reticulum (ATCC 25607); assay: Pink Stain test ASTM E1428, flexible PVC coupons; parameters: key: 0 is no stain; 1 is a trace of stain (less than 10%); 2 is light stain (10-30%); 3 is medium stain (30-50%); 4 is maximum stain (more than 50%); settings: 14 days
Description: as §1
Pink Stain tests are conducted according to ASTM E1428. Briefly, an inoculum containing the microorganism Streptoverticillium reticulum (ATCC 25607) is prepared. The inoculum is streaked onto the surface of Yeast Malt Extract Agar. The samples (in triplicate) are placed on the inoculated agar and incubated at 28° C. for 14 days. The degree of staining is rated on a scale of 0-4 where: 0 is no stain; 1 is a trace of stain (less than 10%); 2 is light stain (10-30%); 3 is medium stain (30-50%) and 4 is maximum stain (more than 50%). The ratings of the pink stain test are disclosed in Tables 1 to 3 for three different synergistic biocide compositions.

[3] = system: mixture of A. niger (ATCC 9642) and P. funiculosum (ATCC 11797); assay: Zone of Inhibition, flexible PVC coupons on seeded Malt agar; parameters: key: A zone of inhibition around the sample is rated as “+”; The absence of zone of inhibition is rated as “−”; settings: 4 weeks
Description: as §1
Briefly a fungal inoculum containing a mixture of A. niger (ATCC 9642) and P. funiculosum (ATCC 11797) is prepared. The spore suspension is added to molten Malt agar to a final concentration of 10^4-10^5 spores/ml, poured onto the petri-dishes and allowed to dry. The samples are placed on the surface of the seeded agar and incubated at 28° C. for 4 weeks. A zone of inhibition around the sample is rated as “+”. The absence of zone of inhibition is rated as “−”. The results are shown in Tables 1 to 3 for three different combinations of biocidal agents.

[4] = system: mixture of Aspergillus niger (ATCC 9642), Aureobasidium pullulans (ATCC 15233), Chaetomium globosum (ATCC 6205), Penicillium funiculosum (ATCC 11797) and …; assay: Fungal resistance ASTM G21 in swimming pool liner formulation; parameters: key: 0 is no growth; 1 is traces of growth (less than 10%); 2 is light growth (10-30%); 3 is medium growth (30-60%); 4 is maximum growth (more than 60%); settings: growth rating after 4 weeks
Description: as §1, §2
A swimming pool liner formulation is selected. The individual and synergistic biocidal compositions respectively IPBC, Folpet, OBPA and Folpet+IPBC are added and processed in the brabender as described in Example 1. The efficacy data for each sample is tested according to ASTM G21. Growth ratings after 4 weeks are described in the following Table 4.

[5] = system: mixture of Aspergillus niger (ATCC 9642), Aureobasidium pullulans (ATCC 15233), Chaetomium globosum (ATCC 6205), Penicillium funiculosum (ATCC 11797) and …; assay: Fungal resistance ASTM G21 in wall covering formulation; parameters: key: 0 is no growth; 1 is traces of growth (less than 10%); 2 is light growth (10-30%); 3 is medium growth (30-60%); 4 is maximum growth (more than 60%); settings: growth rating after 4 weeks
Description: as §1, §2
A wall covering formulation is employed for evaluating the efficacy of the present biocide concentrate composition. The individual and synergistic biocidal compositions respectively IPBC, Folpet, OBPA, Folpet+IPBC, and Folpet+TBZ are added and processed in the brabender as disclosed in Example 1. The efficacy data for each sample was tested according to ASTM G21. Growth ratings after 4 weeks are described in the following Table 5.

Row | Compound | Fungal Resistance Test ([1]; Quantity 500 ppm) | Pink Stain ([2]; Quantity 500 ppm) | Zone inhibition ([3]; Quantity 500 ppm) | Fungal Resistance Test ([4]; Quantity 500 ppm) | Fungal Resistance Test ([5]; Quantity 1000 ppm) | Fungal Resistance Test ([1]; Quantity 3000 ppm) | Pink Stain ([2]; Quantity 3000 ppm) | Zone inhibition ([3]; Quantity 3000 ppm) | Fungal Resistance Test ([4]; Quantity 2000 ppm) | Fungal Resistance Test ([5]; Quantity 2000 ppm) | Fungal Resistance Test ([4]; Quantity 400 ppm) | Fungal Resistance Test ([5]; Quantity 600 ppm)
1 | CCCCNC(=O)OCC#CI [IPBC, 3-iodo-2-propynylbutyl-carbamate] | 1 (1 is traces of growth (less than 10%)) | 2 (2 is light stain (10-30%)) | + | 1 (1 is traces of growth (less than 10%)) | 2 (2 is light growth (10-30%)) |  |  |  |  |  |  | 
2 | O=C1c2ccccc2C(=O)N1SC(Cl)(Cl)Cl [Folpet, trichloromethyl-thio-phthalimide] |  |  |  |  |  | 1 (1 is traces of growth (less than 10%)) | 0 | − | 1 (1 is traces of growth (less than 10%)) | 3 (3 is medium growth (30-60%)) |  | 
3 | c1ccc2[nH]c(-c3cscn3)nc2c1 [TBZ, Thiabendazole] | 1 (1 is traces of growth (less than 10%)) | 2 (2 is light stain (10-30%)) | − |  |  |  |  |  |  |  |  | 
4 | c1ccc2c(c1)Oc1ccccc1[As]2O[As]1c2ccccc2Oc2ccccc21 [OBPA, 10,10-oxybisphenoxarsine] | 0 | 0 | + |  |  |  |  |  |  |  | 0 | 0
5 | CCCCCCCCn1sccc1=O [OIT, 2-Octyl-4-isothiazolin-3-one] | 1 (1 is traces of growth (less than 10%)) | 1 (1 is a trace of stain (less than 10%)) | − |  |  |  |  |  |  |  |  | 
